Assay results taken from ChEMBL document CHEMBL1134744, “Discovery and parallel synthesis of a new class of cathepsin K inhibitors” (Bioorg Med Chem Lett, 2001).

Each molecule was assayed against T1, Cathepsin K (Homo sapiens, UniProt P43235) (assay: (§1) Inhibitory activity against cathepsin K). Settings: not given.
T1 sequence (P43235 whole entry): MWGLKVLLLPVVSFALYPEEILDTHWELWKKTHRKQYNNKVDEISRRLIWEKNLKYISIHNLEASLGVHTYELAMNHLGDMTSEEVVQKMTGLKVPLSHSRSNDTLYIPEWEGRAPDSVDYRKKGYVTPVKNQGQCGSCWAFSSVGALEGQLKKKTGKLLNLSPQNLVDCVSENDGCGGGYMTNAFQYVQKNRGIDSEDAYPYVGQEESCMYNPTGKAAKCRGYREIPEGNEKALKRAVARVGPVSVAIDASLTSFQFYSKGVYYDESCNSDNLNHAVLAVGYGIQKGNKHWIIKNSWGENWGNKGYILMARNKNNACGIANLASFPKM
For `CC[C@H](C)[C@@H](/C=C/c1ccc(Cl)cc1)NC(=O)[C@@H]1CCCCN1CC(=O)c1ccccc1`, the IC50 was 1400 nM. `CC[C@H](C)[C@@H](/C=C/c1ccccc1)NC(=O)[C@@H]1CCCCN1CC(=O)c1c(OC)cccc1OC` showed an IC50 of 700 nM. `CC[C@H](C)[C@@H](/C=C/c1ccccc1)NC(=O)[C@@H]1CCCCN1CC(=O)c1cc(OC)c(OC)c(OC)c1` gave an IC50 of 1200 nM and a Ki of 790 nM. With `CC[C@H](C)[C@@H](/C=C/c1ccccc1)NC(=O)[C@@H]1CCCCN1CC(=O)c1ccccc1` the IC50 was 230 nM. `CC[C@H](C)[C@@H](/C=C/c1ccccc1)NC(=O)[C@@H]1CCCCN1CC(=O)c1ccc2c(c1)OCO2` gave an IC50 of 590 nM. For `CC[C@H](C)[C@@H](/C=C/c1ccccc1)NC(=O)[C@@H]1CCCCN1CC(=O)c1ccc(OC)cc1`, the IC50 was 410 nM. `CC[C@H](C)[C@@H](/C=C/c1ccc(C)cc1)NC(=O)[C@@H]1CCCCN1CC(=O)c1ccccc1` showed an IC50 of 740 nM. For `COc1cc(C(=O)CN2CCCC[C@H]2C(=O)N[C@H](/C=C/c2ccccc2)CC(C)C)cc(OC)c1OC`, the IC50 was 1500 nM. `CC[C@H](C)[C@@H](/C=C/c1ccccc1C)NC(=O)[C@@H]1CCCCN1CC(=O)c1ccccc1` was tested, and the IC50 was 590 nM. `CC(C)C[C@@H](/C=C/c1ccccc1)NC(=O)[C@@H]1CCCCN1CC(=O)c1ccccc1` gave an IC50 of 840 nM. `CC[C@H](C)[C@@H](/C=C/c1ccccc1)NC(=O)[C@@H]1CCCCN1CC(=O)c1ccc(Cl)cc1` showed an IC50 of 280 nM.

Each molecule was assayed against T2, Cathepsin K (Homo sapiens) (UniProt P43235) (assay: as §1). Settings: concentration not given here.
T2 sequence (whole entry): T1 sequence (P43235 whole entry)
Parameters: concentration or dose not given beside the values
Molecule `CCC(=O)CN1CCCC[C@H]1C(=O)N[C@H](/C=C/c1ccccc1)[C@@H](C)CC` has an inhibition of 22%. In the case of `CC[C@H](C)[C@@H](/C=C/c1ccncc1)NC(=O)[C@@H]1CCCCN1CC(=O)c1ccccc1`, the inhibition is reported as 8%. Molecule `CC[C@H](C)[C@@H](/C=C/c1ccccc1)NC(=O)[C@@H]1CCCN1CC(=O)c1ccccc1` has an inhibition of 15%. For `COc1cc(C(=O)CN2CCCC[C@H]2C(=O)N[C@H](/C=C/c2ccccc2)Cc2ccccc2)cc(OC)c1OC`, the inhibition was 20%. `CC[C@H](C)[C@@H](/C=C/c1ccccc1)NC(=O)[C@@H]1CCCCN1CC(=O)c1ccc([N+](=O)[O-])cc1` was tested, and the inhibition was 28%. `O=C(CN1CCCC[C@H]1C(=O)Nc1cccc(-c2ccccc2)c1)c1ccccc1` showed an inhibition of 2%. `CC[C@H](C)[C@H](NC(=O)[C@@H]1CCCCN1CC(=O)c1ccccc1)C(=O)Nc1ccccc1` gave an inhibition of 8%. `CC[C@H](C)[C@@H](/C=C/c1ccccc1)NC(=O)[C@@H]1CCCCN1CC(=O)c1ccc(NC(C)=O)cc1` was tested, and the inhibition was 42%. `CC[C@H](C)[C@@H](/C=C/c1ccccc1)NC(=O)[C@@H]1Cc2ccccc2CN1CC(=O)c1ccccc1` gave an inhibition of 29%. `O=C(CN1CCCC[C@H]1C(=O)Nc1ccc2oc3ccccc3c2c1)c1ccccc1` was tested, and the inhibition was less than 1%. `CC[C@H](C)[C@@H](/C=C/c1ccccc1)NC(=O)[C@@H]1CCCCN1CC(=O)c1cccc([N+](=O)[O-])c1` was tested, and the inhibition was 11%. For `CC[C@H](C)[C@@H](/C=C/c1ccccn1)NC(=O)[C@@H]1CCCCN1CC(=O)c1ccccc1`, the inhibition was 26%. `CC[C@H](C)[C@@H](/C=C/c1ccccc1)NC(=O)[C@@H]1CCCCN1CC(O)c1cc(OC)c(OC)c(OC)c1` (stereo not given in full) gave an inhibition of 8%. Molecule `CC[C@H](C)[C@@H](/C=C/c1ccccc1)NC(=O)[C@@H]1CCCCN1CC(=O)c1ccc(C#N)cc1` has an inhibition of 16%. `CC[C@H](C)[C@@H](/C=C/c1ccccc1)NC(=O)[C@@H]1CCCCN1CC(C)=O` was tested, and the inhibition was 3%. With `CC[C@H](C)[C@@H](/C=C/c1ccccc1)NC(=O)[C@@H]1C=CCN1CC(=O)c1ccccc1` the inhibition was 43%.

Each molecule was assayed against T1, Cathepsin K (assay: Inhibitory activity against Cathepsin K). Settings: not given.
With `CC(C)C[C@H](NC(=O)OCc1ccccc1)C(=O)NC1CN(C(=O)[C@H](CC(C)C)NC(=O)OCc2ccccc2)CC1=O` (stereo not given in full) the Ki was 2 nM. `CC(C)[C@@H](/C=C/c1ccccc1)NC(=O)[C@@H]1CCCCN1CC(=O)c1ccccc1` was tested, and the IC50 was 780 nM.
